Data reported in ChEMBL document CHEMBL3763065, “Anti-inflammatory and antioxidant properties of a novel resveratrol-salicylate hybrid analog” (Bioorg Med Chem Lett, 2016).
Calls of active or inactive are those of the source. No cut-off for these calls is given here.

Experiments:
[1] = target: T1, Prostaglandin G/H synthase 1 (Ovis aries, UniProt P05979); test: Inhibition of ovine COX-1 using arachidonic acid as substrate assessed as PGE2 production preincubated for 10 mins followed by substrate addition incubated for 2 mins by ELISA
T1 sequence (P05979 whole entry): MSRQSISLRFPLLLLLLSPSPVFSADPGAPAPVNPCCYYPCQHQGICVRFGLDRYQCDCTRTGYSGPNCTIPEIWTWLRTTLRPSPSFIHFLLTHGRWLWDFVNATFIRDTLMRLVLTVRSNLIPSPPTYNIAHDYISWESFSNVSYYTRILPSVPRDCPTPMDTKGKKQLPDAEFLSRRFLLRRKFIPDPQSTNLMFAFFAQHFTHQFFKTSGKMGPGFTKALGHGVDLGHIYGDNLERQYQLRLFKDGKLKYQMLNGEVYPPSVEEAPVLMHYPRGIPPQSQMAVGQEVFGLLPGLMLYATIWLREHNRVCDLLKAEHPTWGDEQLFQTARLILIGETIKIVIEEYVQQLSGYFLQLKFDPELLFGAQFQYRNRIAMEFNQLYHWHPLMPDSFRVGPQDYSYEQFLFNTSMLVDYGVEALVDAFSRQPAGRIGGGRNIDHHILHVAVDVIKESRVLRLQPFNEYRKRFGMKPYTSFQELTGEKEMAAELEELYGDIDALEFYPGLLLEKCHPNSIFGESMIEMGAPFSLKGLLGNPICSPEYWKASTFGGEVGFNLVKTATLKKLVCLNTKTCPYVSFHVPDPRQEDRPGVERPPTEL

[2] = target: T2, Prostaglandin G/H synthase 2 (Homo sapiens, UniProt P35354); test: Inhibition of human recombinant COX-2 using arachidonic acid as substrate assessed as PGE2 production preincubated for 10 mins followed by substrate addition incubated for 2 mins by ELISA
T2 sequence (P35354 whole entry): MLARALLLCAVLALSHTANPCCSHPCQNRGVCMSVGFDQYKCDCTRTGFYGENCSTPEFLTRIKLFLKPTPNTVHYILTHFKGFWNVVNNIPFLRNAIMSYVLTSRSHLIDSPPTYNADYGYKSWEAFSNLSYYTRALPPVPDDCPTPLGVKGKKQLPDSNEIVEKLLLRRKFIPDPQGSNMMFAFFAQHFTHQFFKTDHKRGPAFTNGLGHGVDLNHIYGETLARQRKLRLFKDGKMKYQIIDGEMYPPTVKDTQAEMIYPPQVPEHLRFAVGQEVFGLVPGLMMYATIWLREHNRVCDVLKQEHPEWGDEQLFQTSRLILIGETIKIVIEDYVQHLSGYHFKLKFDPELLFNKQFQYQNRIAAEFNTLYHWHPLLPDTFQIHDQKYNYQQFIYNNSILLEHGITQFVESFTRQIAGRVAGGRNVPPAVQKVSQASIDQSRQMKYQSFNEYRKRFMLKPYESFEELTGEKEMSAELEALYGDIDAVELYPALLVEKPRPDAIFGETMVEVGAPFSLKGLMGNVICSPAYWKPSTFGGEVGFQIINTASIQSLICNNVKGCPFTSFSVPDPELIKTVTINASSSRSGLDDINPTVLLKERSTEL

[3] = Selectivity index ratio of IC50 for ovine COX-1 to IC50 for human recombinant COX-2
[4] = Antioxidant activity assessed as DPPH free radical scavenging activity at 0.06 to 200 uM after 30 mins by spectrophotometric analysis; type: physicochemical; conditions: 0.5 h
Mus musculus [5] = test: Antiinflammatory activity in BALB/c mouse paw edema model assessed as decrease in myeloperoxidase activity in paw exudates at 20 mg/kg, po administered 30 mins prior to carrageenan challenge measured after 4 hrs by microplate reader analysis relative to control; type: functional
Mus musculus [6] = test: Antiinflammatory activity in carrageenan-induced BALB/c mouse peritonitis model assessed as decrease in number of leukocytes in peritoneal exudates administered via oral gavage 30 mins prior to carrageenan challenge measured after 4 hrs; type: functional, organism-based
Mus musculus [7] = test: Antiinflammatory activity in carrageenan-induced BALB/c mouse peritonitis model assessed as decrease in nitric oxide level in peritoneal exudates at 10 to 20 mg/kg administered via oral gavage 30 mins prior to carrageenan challenge measured after 4 hrs by Griess method; type: functional, organism-based
Mus musculus [8] = test: Antiinflammatory activity in carrageenan-induced BALB/c mouse paw edema model assessed as decrease in paw volume at 10 mg/kg, po administered 30 mins prior to carrageenan challenge measured after 6 hrs by plethysmometric analysis relative to control; type: functional; parameters: scale not given: the % may be the effect or the level left
Mus musculus [9] = test: Antiinflammatory activity in carrageenan-induced BALB/c mouse paw edema model assessed as decrease in paw volume administered orally 30 mins prior to carrageenan challenge measured after 1 to 6 hrs by plethysmometric analysis; type: functional, organism-based
Mus musculus [10] = test: Antiinflammatory activity in carrageenan-induced BALB/c mouse paw edema model assessed as decrease in paw volume at 20 mg/kg, po administered 30 mins prior to carrageenan challenge measured after 6 hrs by plethysmometric analysis relative to control; type: functional; parameters: scale not given: the % may be the effect or the level left
HepG2 [11] = test: Antioxidant activity in human HepG2 cells assessed as reduction of H2O2-induced ROS level at 10 uM pretreated for 20 hrs followed by H2O2 stimulation for 30 mins by DCF-DA-based fluorescence analysis relative to control; type: functional; parameters: scale not given: the % may be the effect or the level left
HepG2 [12] = test: Cytotoxicity against human HepG2 cells at 2.5 to 10 uM by MTT assay; type: cell-based; conditions: hepg2, 10 µM
[13] = Antioxidant activity assessed as DPPH free radical scavenging activity at 200 uM after 30 mins by spectrophotometric analysis; type: physicochemical; conditions: 0.5 h
Mus musculus [14] = test: Antiinflammatory activity in BALB/c mouse paw edema model assessed as decrease in myeloperoxidase activity in paw exudates at 10 mg/kg, po administered 30 mins prior to carrageenan challenge measured after 4 hrs by microplate reader analysis relative to control; type: functional; parameters: scale not given: the % may be the effect or the level left
Mus musculus [15] = test: Antiinflammatory activity in carrageenan-induced BALB/c mouse peritonitis model assessed as decrease in number of leukocytes in peritoneal exudates at 10 to 20 mg/kg administered via oral gavage 30 mins prior to carrageenan challenge measured after 4 hrs; type: functional, organism-based

Structure (SMILES)	IC50 [1] [µM]	IC50 [2] [µM]	Ratio IC50 [3]	Activity [4]	Activity (Mus musculus [5])	Activity (Mus musculus [6])	Activity (Mus musculus [7])	Activity (Mus musculus [8]) [%]	Activity (Mus musculus [9])	Activity (Mus musculus [10]) [%]	Activity (HepG2 [11]) [%]	Activity (HepG2 [12])	Activity [13]	Activity (Mus musculus [14]) [%]	Activity (Mus musculus [15])
O=C(O)c1cc(/C=C/c2cc(O)cc(O)c2)ccc1O	3.2	10.3	0.31	Active											
COc1ccc(/C=C/c2cc(OC)cc(OC)c2)cc1 [TRISMETHOXYRESVERATROL]	1.23	1.67	0.74		inactive	Dose-dependent effect	inactive	19	Dose-dependent effect	34	42	Non-toxic			
O=C(O)c1cc(/C=C/c2ccc(O)cc2)ccc1O	421	> 500											Active		
COC(=O)c1cc(/C=C/c2cc(O)cc(O)c2)ccc1O	4.1	1	4.1	Active	60%	Dose-dependent effect	inactive	59	Dose-dependent effect	74	33	Non-toxic		60	
Oc1ccc(/C=C/c2cc(O)cc(O)c2)cc1 [RESVERATROL]				Active	53%		inactive	34	Dose-dependent effect	52	25	Non-toxic			Active
